Assay [1] relates to S. cerevisiae strain AD3Δ ScErg11 Y140H expressing ScLDM6×His Y140H. As to the kind of experiment: Broth microdilution drug susceptibility assay (MIC80), strain AD3Δ ScErg11 Y140H. In kind it is cell-based, Saccharomyces cerevisiae. The following applies: Saccharomyces cerevisiae; strain Y140H; 48 h, 30 °C, pH 6.8; mean (± SEM), n = 3. On the procedure: (§1) The native ScERG11 gene in yeast cells containing mutant ScERG11-6×His constructs in the PDR5 locus was disrupted by homologous recombination with a cassette encoding the His1 selection marker and sequences homologous with the regions bordering the endogenous ScERG11 ORF to create strains AD3Δ ScErg11 Y140H, AD3Δ ScErg11 I471T and AD3Δ ScErg11Y140H I471T [43]. Transformants were selected on SD-His agar plates incubated at 30 °C for 48–72 h. Genomic DNA was extracted, and DNA sequencing as above was used to confirm deletion of the native ERG11. Strain AD3Δ ScErg11 (denoted as AD3Δ), which overexpresses wild-type ScLDM6×His from the PDR5 locus and has the native ScERG11 gene disrupted, was used as a control strain [43].
(§2) Azole susceptibility was measured as the mean drug concentration required to inhibit 80% of yeast growth (MIC80) compared to a non-drug control, using a standard broth microdilution assay. Serial dilutions of short- (FLC and VCZ), medium- (VT-1161), and long-tailed (ITC and PCZ) azole drugs, and the control drugs micafungin (MCF) and amphotericin B (AMB), were prepared in a 96-well microtiter plate in complete synthetic media lacking uracil, buffered to pH 6.8 [34]. Control and test cells were seeded at an optical density of 600 nm (OD600) of 0.005 (~1.5 × 10^4 colony forming units). After incubation for 48 h at 30 °C with constant agitation (200 rpm), the OD600 nm of each well was measured using a Synergy 2 multi-mode plate reader (BioTek Instruments, Winooski, VT, USA). The experiment was repeated three times (a total of nine measurements for the response of each strain to each drug). GraphPad Prism 5.0 software was used for statistical analysis, using a one-way analysis of variance with a Bonferroni post-hoc test. The statistical significance of comparisons was accepted when p < 0.05.
A general note: Broth dilution looks for growth in wells or tubes with falling amounts of substance.

Assay [2] relates to S. cerevisiae strain AD2Δ (native wild-type ScLDM). As to the kind of experiment: Broth microdilution drug susceptibility assay (MIC80), host strain AD2Δ. In kind it is cell-based. The following applies: Saccharomyces cerevisiae; strain AD2Δ; 48 h, 30 °C, pH 6.8; mean (± SEM), n = 3; read-out: MIC80. The procedure:
Yeast strains used in this study (Supplementary Table S1) were prepared using the AD2Δ strain of S. cerevisiae as a host, using an established protocol. AD2Δ is hypersensitive to xenobiotics due to the deletion of seven major ABC transporters, including those responsible for the efflux of azole drugs. It is also deleted of the PDR3 transcriptional regulator, but contains the gain-of-function Pdr1-3 transcriptional regulator mutation that leads to constitutive overexpression from the PDR5 locus.
as §2

The subject of assay [3] is S. cerevisiae strain AD3Δ ScErg11 Y140H I471T expressing ScLDM6×His Y140H I471T. As to the kind of experiment: Broth microdilution drug susceptibility assay (MIC80), strain AD3Δ ScErg11 Y140H I471T. Type of assay: cell-based, Saccharomyces cerevisiae. The following applies: Saccharomyces cerevisiae; strain Y140H + I471T; 48 h, 30 °C, pH 6.8; mean (± SEM), n = 3. On the procedure: as §1, §2

In assay [4] the test system is S. cerevisiae test and control strains (AD2Δ, AD3Δ and mutants). As to the kind of experiment: Broth microdilution MIC80, comparison across the various cell types tested. Type of assay: cell-based, Saccharomyces cerevisiae. The following applies: p > 0.05. The procedure:
as §2

Assay [5] relates to C. albicans Darlington strain. As to the kind of experiment: Agarose disk diffusion assay, Darlington strain. In kind it is cell-based, Candida albicans. The following applies: no efflux pump inhibitor. The procedure: Agarose diffusion assays were carried out as described previously using the Darlington strain of C. albicans (Pfizer Ltd., Sandwich, UK) and the control C. albicans database strain SC5314, which is not resistant to azoles. The Cdr1p-specific inhibitor RC21v3 and the CaMdr1p-specific inhibitor MCC1189 (MicroCombiChem, Wiesbaden, Germany), included in the assay medium at 6 µM, were used to investigate the contribution of efflux pumps to azole resistance in the Darlington strain [49, 50, 51].
(A growth-free zone around the sample is the usual read-out of agar diffusion tests.)

Assay [6] concerns S. cerevisiae strain AD3Δ ScErg11 I471T expressing ScLDM6×His I471T. As to the kind of experiment: Broth microdilution drug susceptibility assay (MIC80), strain AD3Δ ScErg11 I471T. Type of assay: cell-based, Saccharomyces cerevisiae. The following applies: for MIC80: Saccharomyces cerevisiae, strain I471T, 48 h, 30 °C, pH 6.8, mean (± SEM), n = 3; for increased susceptibility compared with AD3Δ: strain AD3Δ ScErg11 I471T, not corrected for expression. On the procedure: as §1, §2

The test system of assay [7] is S. cerevisiae strain AD3Δ ScErg11 (AD3Δ) overexpressing wild-type ScLDM6×His. As to the kind of experiment: Broth microdilution drug susceptibility assay (MIC80), strain AD3Δ ScErg11. Type of assay: cell-based, Saccharomyces cerevisiae. The following applies: for MIC80: Saccharomyces cerevisiae, strain AD3Δ, 48 h, 30 °C, pH 6.8, mean (± SEM), n = 3, read-out: MIC80; for effect of ScLDM6×His overexpression on susceptibility to control antifungals: strain AD3Δ vs AD2Δ. The procedure: as §1, §2

Assay [8] deals with CaLDM I471T. Set-up: method as in PMID 20625155. The following applies: detergent solubilized CaLDM I471T single-mutation; cited from earlier work.

Starred links: 1 amine or outer side, 2 acyl side, 3 side chain; linkers in the order of their positions; H or OH if unused. Positions of bridges follow the written chain, without caps; N, C: chain ends. Non-standard residues stand in square brackets, D forms with d. Residues, ends and D or L forms follow the SMILES beside them. *: point of attachment. hTyr(3S-OH,4S-OH,3'-OSO3H) = N[C@H](C(=O)O)[C@H](O)[C@@H](O)c1ccc(O)c(OS(=O)(=O)O)c1; Orn(4R-OH,5R-OH) = O=C([C@H](C[C@@H](O)[C@@H](O)N[*:3])N[*:1])[*:2]; Pro(3S-OH,4S-Me) = C[C@H]1CN[C@H](C(=O)O)[C@H]1O; X1 = CCCCCOc1ccc(-c2cc(-c3ccc(C(=O)*)cc3)no2)cc1; Gln(3R-OH) = NC(=O)C[C@@H](O)[C@H](N)C(=O)O; Hyp = O=C(O)[C@@H]1C[C@@H](O)CN1

One may read the MIC80 as the lowest concentration that inhibits either 80% of growth or 80% of the strains tested, depending on the study. On to `C[C@@H]1[C@H](O)[C@@H](C)/C=C/C=C/C=C/C=C/C=C/C=C/C=C/[C@H](O[C@@H]2O[C@H](C)[C@@H](O)[C@H](N)[C@@H]2O)C[C@@H]2O[C@](O)(C[C@@H](O)C[C@@H](O)[C@H](O)CC[C@@H](O)C[C@@H](O)CC(=O)O[C@H]1C)C[C@H](O)[C@H]2C(=O)O` [AMB, amphotericin B], for which the MIC80 in assay [1] is 2.19 µM; in assay [2], 2.18 µM; in assay [3], 2.14 µM; in assay [6] it was 2.26 µM; in assay [7], 2.34 µM. The “differences between MIC80s for the various cell types tested” value in assay [4] is given as “no statistically significant differences”. Besides, the “agarose diffusion susceptibility” value in assay [5] is reported as “mild resistance”. In assay [6], the “increased susceptibility compared with AD3Δ” value is listed as “not”. Besides, the “effect of ScLDM6×His overexpression on susceptibility to control antifungals” value in assay [7] was “did not modify susceptibility”.
Broadly, the MIC is the smallest concentration in the dilution series that meets the test's criterion for growth inhibition. `CCCCCOc1ccc(-c2cc(-c3ccc(C(=O)N[C@H]4C[C@@H](O)[C@@H](O)NC(=O)[C@@H]5[C@@H](O)[C@@H](C)CN5C(=O)[C@H]([C@H](O)CC(N)=O)NC(=O)[C@H]([C@H](O)[C@@H](O)c5ccc(O)c(OS(=O)(=O)O)c5)NC(=O)[C@@H]5C[C@@H](O)CN5C(=O)[C@H]([C@@H](C)O)NC4=O)cc3)no2)cc1` [MCF, micafungin] (X1-[Orn(4R-OH,5R-OH)]T[Hyp][hTyr(3S-OH,4S-OH,3'-OSO3H)][Gln(3R-OH)][Pro(3S-OH,4S-Me)]; lactam 1-C): the MIC80 in assay [1] was found to be 0.166 µM; in assay [2], 0.174 µM; in assay [6] it was 0.164 µM; in assay [7], 0.146 µM. Besides, the MIC in assay [3] stood at 0.162 µM. Also, in assay [4], the “differences between MIC80s for the various cell types tested” value is “no statistically significant differences”. Also, the “increased susceptibility compared with AD3Δ” value in assay [6] is “not”. In addition, the “effect of ScLDM6×His overexpression on susceptibility to control antifungals” value in assay [7] was “did not modify susceptibility”.
In the case of `CC(C)=CCC[C@@H](C)[C@H]1CC[C@@]2(C)C3=C(CC[C@]12C)[C@@]1(C)CC[C@H](O)C(C)(C)[C@@H]1CC3` [lanosterol], in assay [8], the “higher affinity for the endogenous substrate than the wild-type protein” value is given as 2.4 fold.

These data come from publication PMC8621857, “Structural Insights into the Azole Resistance of the Candida albicans Darlington Strain Using Saccharomyces cerevisiae Lanosterol 14α-Demethylase as a Surrogate” (Journal of Fungi, 2021).
